Experimental findings from paper PMC5290327, “SC83288 is a clinical development candidate for the treatment of severe malaria” (Nature Communications, 2017) are described below.

A short description of data set [1]: In vitro metabolism in liver microsomes. The settings on record: rat liver microsomes, 10 μM. Background: Liver microsomes are a subcellular fraction often used to study metabolism.
The target of the next data set is T1, VPAC1 (VIP1) (h) (Homo sapiens, UniProt P32241).
T1 construct: Cerep (contract screening)
Description: Radioligand binding.

The target of another data set is T2, NOP (ORL1) (h) (Homo sapiens, UniProt P41146).
T2 construct: Cerep
Description: Radioligand binding.

In another data set the test system is Plasmodium berghei. Description: Ex vivo one-cycle growth inhibition assay. It counts as cell-based. The procedure: This was the case for both an in vivo 4 day dosing regimen of 30 mg kg^−1 per day and an ex vivo one-cycle growth inhibition assay. […] Differential therapeutic efficacy in various rodent model systems is a well-established phenomenon and is typically associated with charged compounds, such as positively charged amidines and negatively charged phosphoric acid or carboxylic acid containing drugs. The phenomenon is explained based on selective uptake of charged compounds through parasite-induced channels, termed new permeation pathways, in the host cell plasma membrane and species-specific characteristics of the new permeation pathways.

For another data set, the system named is 401 human kinases. Nature of the data set: Kinase competition assay, whole panel. It counts as binding. Particulars: 10 μM. The method, then:
The KINOMEscan was carried out by Ambit (San Diego, USA) according to a previously established protocol. The experiment was based on a competition binding assay that quantitatively measures the ability of a compound to compete with an immobilized, active-site directed ligand. The assay is performed by combining three components: DNA-tagged kinase; immobilized ligand; and a test compound. The ability of the test compound to compete with the immobilized ligand is measured via quantitative PCR of the DNA tag.
For most assays, kinase-tagged T7 phage strains were grown in parallel in 24-well blocks in an Escherichia coli host derived from the BL21 strain. E. coli were grown to log-phase and infected with T7 phage from a frozen stock and incubated with shaking at 32 °C until lysis (90–150 min). The lysates were centrifuged (6,000g) and filtered (0.2 μm) to remove cell debris. The remaining kinases were produced in HEK-293 cells (Sigma Aldrich, catalogue number: 85120602) and subsequently tagged with DNA for quantitative PCR detection. […] The liganded beads were blocked with excess biotin and washed with blocking buffer (SeaBlock (Pierce), 1% bovine serum albumin, 0.05% Tween 20 and 1 mM dithiothreitol) to remove unbound ligand and to reduce non-specific phage binding. […] The kinase concentration in the eluates was measured by quantitative PCR.

For a further data set, the target named is T3, M1 (h) (Homo sapiens, UniProt P11229).
T3 construct: Cerep
It counts as binding.

The target of a further data set is T4, NK2 (h) (Homo sapiens, UniProt P21452).
T4 construct: Cerep
Description: Radioligand binding.

The target in another data set is T5, hERG channel (Homo sapiens, UniProt Q12809).
T5 construct: expressed in transfected cells; host or cells: HEK 293
Nature of the data set: hERG profiling, whole cell patch-clamp. It counts as cell-based. The method, then: A HEK 293 cell line (Sigma Aldrich, catalogue number: 85120602) constitutively expressing the hERG channel in the membrane was used for the assay. The cells were cultured in MEM with Earle's salts and L-glutamine (10% FCS, non-essential amino acids, 300 μg ml^−1 Geneticin (G418)) and kept at 37 °C and under 5% CO2. Cells were routinely split every 3–4 days at a 1:5–1:10 ratio. The electrophysiological measurements were performed using the whole cell patch-clamp method. Extracellular bath solution contained 137 mM NaCl, 4 mM KCl, 1 mM MgCl2, 1.8 mM CaCl2, 10 mM glucose, 10 mM HEPES (pH 7.4 with NaOH), the intracellular pipette solution 130 mM KCl, 1 mM MgCl2, 5 mM MgATP, 5 mM EGTA and 10 mM HEPES (pH 7.2 with KOH). To assess the effects of SC81458 and SC83288 on the current through the hERG channel, a 1,500 ms of conditioning voltage pulse was applied every 20 s by the holding membrane potential (−80 mV) is carried out to +40 mV followed by a 500 ms test pulse of +40 mV to −40 mV. The amplitude of the current peak induced by the test pulse was determined at equilibrium (I0) and after (Idrug) addition of the substance. After the application of the substance, the cells were rinsed with extracellular bath solution until a complete recovery of the current occurred; otherwise, the cells were replaced with new ones.
In general terms: Block of hERG is tested as a sign of cardiac risk.

The next data set has as its target T6, b2 (h) (Homo sapiens, UniProt P07550).
T6 construct: Cerep (contract study)
It counts as binding.

The target of the next data set is T7, MT1 (ML1A) (h) (Homo sapiens, UniProt P48039).
T7 construct: Cerep
Description: Radioligand binding.

A further data set addresses T8, V1a (h) (Homo sapiens, UniProt P37288).
T8 construct: Cerep (contract screening)
Description: Radioligand binding.

Data set [2] has as its system human peripheral blood macrophages. Description: Cytotoxicity. The settings on record: 50 μM.
In another data set the target is T9, 5-HT transporter (h) (Homo sapiens, UniProt P31645).
T9 construct: Cerep (contract screening)
Nature of the data set: Radioligand binding.

For data set [3], the system named is late stage (IV and V) gametocytes, NF54^Pfs16. Nature of the data set: Gametocytocidal activity, luciferase assay. It counts as cell-based. Particulars: Plasmodium falciparum, 72 h. The method, then:
(§1) Activity against early- and late-stage gametocytes was determined in miniaturized 384-wells plate assays as previously described. Briefly, gametocytes from a recombinant line NF54^Pfs16, expressing a green fluorescent protein–luciferase reporter gene under the gametocyte-specific Pfs16 promoter were induced and purified as previously described; gametocytes were then treated either on day 1 (stage I gametocytes) or day 8 of gametocytogenesis (stage IV gametocytes) with serially diluted SC81458 or SC83288 to achieve a final top concentration of 40 μM (0.4% dimethylsulphoxide(DMSO)). After 72 h of incubation, gametocyte inhibition was assessed by luminometry, after addition of Steadylite plus luciferase detection kit (PerkinElmer) to the plate wells[58][59].

The subject of data set [4] is early stage (I–III) gametocytes, NF54^Pfs16. Nature of the data set: Gametocytocidal activity, luciferase assay. It counts as cell-based. The settings on record: Plasmodium falciparum, 72 h. The procedure: as §1
A further data set has as its target CYP2D6 (Homo sapiens, UniProt P10635). Nature of the data set: CYP inhibition, human liver microsomes. Particulars: CYP2D6, dextromethorphan to O-desmethyldextromethorphan, 10 µM.
Another data set concerns the target T10, NK3 (h) (Homo sapiens, UniProt P29371).
T10 construct: Cerep
Description: Radioligand binding.

The test system of data set [5] is drug-resistant P. falciparum lab strains other than Dd2. Nature of the data set: Growth inhibition assay. It counts as cell-based. Particulars: Plasmodium falciparum.
In a further data set the target is T11, M3 (h) (Homo sapiens, UniProt P20309).
T11 construct: Cerep
Description: Radioligand binding.

By IC50 is commonly meant the point on the concentration scale where inhibition reaches its midpoint.

T5 sequence (Q12809 whole entry): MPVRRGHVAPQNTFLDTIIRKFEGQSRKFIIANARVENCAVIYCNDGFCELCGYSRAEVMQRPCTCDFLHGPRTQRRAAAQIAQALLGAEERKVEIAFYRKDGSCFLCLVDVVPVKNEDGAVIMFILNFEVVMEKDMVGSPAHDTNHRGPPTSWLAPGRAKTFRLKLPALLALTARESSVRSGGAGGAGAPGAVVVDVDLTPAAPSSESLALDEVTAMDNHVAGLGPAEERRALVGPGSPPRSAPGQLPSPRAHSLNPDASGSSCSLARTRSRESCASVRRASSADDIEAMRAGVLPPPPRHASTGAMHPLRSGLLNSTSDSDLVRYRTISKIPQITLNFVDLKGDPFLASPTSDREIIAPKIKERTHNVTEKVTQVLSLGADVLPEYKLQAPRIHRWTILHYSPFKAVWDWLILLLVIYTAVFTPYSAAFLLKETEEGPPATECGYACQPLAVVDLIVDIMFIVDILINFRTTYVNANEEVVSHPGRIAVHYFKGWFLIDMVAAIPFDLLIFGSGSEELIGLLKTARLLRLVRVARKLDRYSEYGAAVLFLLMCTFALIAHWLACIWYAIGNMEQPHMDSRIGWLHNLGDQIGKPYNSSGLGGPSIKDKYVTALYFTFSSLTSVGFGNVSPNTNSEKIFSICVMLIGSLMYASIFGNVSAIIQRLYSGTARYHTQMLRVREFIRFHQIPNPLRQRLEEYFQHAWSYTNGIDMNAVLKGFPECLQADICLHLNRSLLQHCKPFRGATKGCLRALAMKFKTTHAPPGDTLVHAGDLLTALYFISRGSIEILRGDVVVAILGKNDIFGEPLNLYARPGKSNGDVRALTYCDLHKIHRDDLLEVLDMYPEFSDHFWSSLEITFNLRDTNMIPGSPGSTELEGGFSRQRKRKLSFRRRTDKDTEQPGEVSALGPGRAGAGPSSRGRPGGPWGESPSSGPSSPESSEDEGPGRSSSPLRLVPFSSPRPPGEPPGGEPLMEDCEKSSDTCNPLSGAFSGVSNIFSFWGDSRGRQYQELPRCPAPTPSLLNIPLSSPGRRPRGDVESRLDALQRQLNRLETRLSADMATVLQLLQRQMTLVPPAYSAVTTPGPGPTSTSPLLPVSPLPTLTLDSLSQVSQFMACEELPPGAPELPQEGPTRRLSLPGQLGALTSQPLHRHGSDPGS
T6 sequence (P07550 whole entry): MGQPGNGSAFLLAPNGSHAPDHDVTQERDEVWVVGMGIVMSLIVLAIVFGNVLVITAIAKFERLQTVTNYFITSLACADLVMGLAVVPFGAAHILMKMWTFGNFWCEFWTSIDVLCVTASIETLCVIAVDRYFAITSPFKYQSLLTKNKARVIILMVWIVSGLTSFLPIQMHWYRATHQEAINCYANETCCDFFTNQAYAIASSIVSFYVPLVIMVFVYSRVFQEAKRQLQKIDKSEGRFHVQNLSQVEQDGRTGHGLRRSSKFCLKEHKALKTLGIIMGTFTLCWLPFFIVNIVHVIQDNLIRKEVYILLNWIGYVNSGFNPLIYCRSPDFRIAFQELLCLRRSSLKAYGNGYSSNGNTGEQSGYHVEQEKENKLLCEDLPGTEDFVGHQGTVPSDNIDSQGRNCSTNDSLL
T8 sequence (P37288 whole entry): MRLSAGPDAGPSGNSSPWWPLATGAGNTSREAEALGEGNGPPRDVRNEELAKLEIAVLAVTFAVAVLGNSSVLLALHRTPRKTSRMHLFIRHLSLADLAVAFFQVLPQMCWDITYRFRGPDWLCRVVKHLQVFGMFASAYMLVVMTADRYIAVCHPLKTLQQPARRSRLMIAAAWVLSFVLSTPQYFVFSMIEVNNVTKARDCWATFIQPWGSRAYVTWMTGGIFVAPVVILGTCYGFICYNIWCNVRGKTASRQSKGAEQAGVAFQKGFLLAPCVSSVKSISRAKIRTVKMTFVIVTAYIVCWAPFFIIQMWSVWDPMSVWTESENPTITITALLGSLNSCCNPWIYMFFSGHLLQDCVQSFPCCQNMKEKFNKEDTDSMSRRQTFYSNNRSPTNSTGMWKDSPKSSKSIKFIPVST
T7 sequence (P48039 whole entry): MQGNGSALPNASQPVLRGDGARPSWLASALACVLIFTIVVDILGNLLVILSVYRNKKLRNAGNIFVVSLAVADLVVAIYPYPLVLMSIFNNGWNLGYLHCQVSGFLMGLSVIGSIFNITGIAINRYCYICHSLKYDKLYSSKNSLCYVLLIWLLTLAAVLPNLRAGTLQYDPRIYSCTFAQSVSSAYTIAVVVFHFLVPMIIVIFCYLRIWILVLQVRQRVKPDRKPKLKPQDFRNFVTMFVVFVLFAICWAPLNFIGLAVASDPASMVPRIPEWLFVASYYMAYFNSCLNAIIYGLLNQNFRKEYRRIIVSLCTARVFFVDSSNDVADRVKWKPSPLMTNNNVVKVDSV
T2 sequence (P41146 whole entry): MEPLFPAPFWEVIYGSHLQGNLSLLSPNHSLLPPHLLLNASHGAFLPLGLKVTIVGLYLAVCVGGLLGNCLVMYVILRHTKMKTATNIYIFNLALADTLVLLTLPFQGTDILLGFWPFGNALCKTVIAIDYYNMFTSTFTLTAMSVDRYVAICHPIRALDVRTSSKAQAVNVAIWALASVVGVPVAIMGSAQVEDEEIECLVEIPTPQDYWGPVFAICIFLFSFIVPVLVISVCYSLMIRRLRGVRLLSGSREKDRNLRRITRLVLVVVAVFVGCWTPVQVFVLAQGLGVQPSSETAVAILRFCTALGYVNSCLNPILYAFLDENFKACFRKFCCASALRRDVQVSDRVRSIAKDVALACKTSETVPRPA
T11 sequence (P20309 whole entry): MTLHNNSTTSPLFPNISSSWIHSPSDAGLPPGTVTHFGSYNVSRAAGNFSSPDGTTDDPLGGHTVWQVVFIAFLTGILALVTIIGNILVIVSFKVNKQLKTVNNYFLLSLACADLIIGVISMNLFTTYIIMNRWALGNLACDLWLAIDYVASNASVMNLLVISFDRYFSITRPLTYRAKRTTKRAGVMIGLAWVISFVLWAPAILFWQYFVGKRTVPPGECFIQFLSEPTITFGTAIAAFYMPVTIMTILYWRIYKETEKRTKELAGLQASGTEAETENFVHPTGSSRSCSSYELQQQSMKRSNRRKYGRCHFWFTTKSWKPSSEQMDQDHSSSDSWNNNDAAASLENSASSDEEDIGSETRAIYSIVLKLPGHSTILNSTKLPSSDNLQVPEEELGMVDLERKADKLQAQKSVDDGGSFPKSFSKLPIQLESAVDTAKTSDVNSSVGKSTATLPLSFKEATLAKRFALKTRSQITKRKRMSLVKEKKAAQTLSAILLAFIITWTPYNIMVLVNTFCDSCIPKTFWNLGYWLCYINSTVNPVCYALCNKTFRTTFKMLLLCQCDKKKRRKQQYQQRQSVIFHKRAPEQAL
T4 sequence (P21452 whole entry): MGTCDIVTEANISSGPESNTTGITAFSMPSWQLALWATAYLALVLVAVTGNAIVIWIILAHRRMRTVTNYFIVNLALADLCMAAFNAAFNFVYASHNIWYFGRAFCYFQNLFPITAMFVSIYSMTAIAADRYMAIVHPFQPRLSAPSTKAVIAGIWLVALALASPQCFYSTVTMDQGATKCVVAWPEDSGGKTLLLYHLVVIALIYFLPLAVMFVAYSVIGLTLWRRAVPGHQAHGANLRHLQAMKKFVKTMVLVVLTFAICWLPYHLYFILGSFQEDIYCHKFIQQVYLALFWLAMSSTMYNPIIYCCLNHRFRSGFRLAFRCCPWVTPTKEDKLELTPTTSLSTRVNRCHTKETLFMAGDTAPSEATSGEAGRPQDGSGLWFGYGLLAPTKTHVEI
Chain of CYP2D6 (P10635 whole entry): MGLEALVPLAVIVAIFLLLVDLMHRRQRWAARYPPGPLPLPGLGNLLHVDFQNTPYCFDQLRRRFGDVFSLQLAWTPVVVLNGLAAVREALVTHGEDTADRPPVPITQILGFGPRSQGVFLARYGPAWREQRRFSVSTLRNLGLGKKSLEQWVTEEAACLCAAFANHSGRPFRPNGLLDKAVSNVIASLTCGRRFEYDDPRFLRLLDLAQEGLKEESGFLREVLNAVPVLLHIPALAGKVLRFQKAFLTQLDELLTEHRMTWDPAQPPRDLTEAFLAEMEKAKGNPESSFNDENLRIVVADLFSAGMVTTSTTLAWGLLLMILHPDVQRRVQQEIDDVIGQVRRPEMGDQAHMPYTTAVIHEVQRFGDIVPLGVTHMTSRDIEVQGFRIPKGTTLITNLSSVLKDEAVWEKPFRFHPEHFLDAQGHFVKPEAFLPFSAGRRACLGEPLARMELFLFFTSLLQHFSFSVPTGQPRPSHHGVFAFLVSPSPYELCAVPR
T10 sequence (P29371 whole entry): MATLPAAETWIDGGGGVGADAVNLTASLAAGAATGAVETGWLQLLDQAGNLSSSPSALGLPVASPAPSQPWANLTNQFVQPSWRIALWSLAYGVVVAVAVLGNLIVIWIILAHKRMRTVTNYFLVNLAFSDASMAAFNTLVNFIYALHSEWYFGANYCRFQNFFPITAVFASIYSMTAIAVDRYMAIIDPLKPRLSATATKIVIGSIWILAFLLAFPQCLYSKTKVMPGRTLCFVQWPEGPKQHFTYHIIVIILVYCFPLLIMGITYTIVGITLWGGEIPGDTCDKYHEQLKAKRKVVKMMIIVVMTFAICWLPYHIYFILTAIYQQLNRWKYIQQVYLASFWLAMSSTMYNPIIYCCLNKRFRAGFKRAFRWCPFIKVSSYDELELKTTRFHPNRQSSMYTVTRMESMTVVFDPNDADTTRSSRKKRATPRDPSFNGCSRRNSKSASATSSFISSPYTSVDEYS

For the compound `CCCCN1CCN(C(=N)c2cccc(NC(=O)Nc3ccc(S(=O)(=O)NCc4ccc(S(N)(=O)=O)cc4)cc3)c2)CC1` [SC81458, 4-(3-(3-((4-butylpiperazin-1-yl)(imino)methyl)phenyl)ureido)-N-(4-sulfamoylbenzyl) benzenesulfonamide], the “remaining after 60 min of incubation” value in [1] was 74%. Moreover, the “Inhibition of control specific binding” value is listed as -4% on VPAC1 (VIP1) (h); 2% on NOP (ORL1) (h); 36% on M1 (h); 51% on NK2 (h); 6% on b2 (h); -5% on MT1 (ML1A) (h). The “Inhibition of control specific binding” value is -1% on V1a (h), 28% on 5-HT transporter (h), 6% on NK3 (h) and 48% on M3 (h). Also, the “activity, ex vivo one-cycle growth inhibition assay” value in the data set on Plasmodium berghei was “inactive”. For the same compound, the “interference with 401 human kinases” value with 401 human kinases was “did not interfere”. On hERG channel (60 μM), this compound returned a hERG activity retained greater than 90%. Moreover, the “in vitro propagation / cytotoxicity” value in data set [2] is given as “did not affect”. The IC50 in [3] was 1800 ± 200 nM; in [4], 76 ± 6 nM; in data set [5] it was less than 20 nM. Further, at CYP2D6, the Remaining enzyme activity stood at 107%.

Consider `COC(=O)N1CCN(C(=N)c2cccc(NC(=O)Nc3ccc(S(=O)(=O)NCc4ccc(S(N)(=O)=O)cc4)cc3)c2)CC1` [SC83288, methyl 4-(imino(3-(3-(4-(N-(4-sulfamoylbenzyl)sulfamoyl)phenyl)ureido)phenyl)methyl) piperazine-1-carboxylate], for which the “remaining after 60 min of incubation” value in data set [1] came to 91%. For the same compound, the “Inhibition of control specific binding” value is reported as -5% at VPAC1 (VIP1) (h); 10% on NOP (ORL1) (h); 75% on M1 (h); 20% on NK2 (h); 27% at b2 (h); -16% on MT1 (ML1A) (h). The “Inhibition of control specific binding” value on V1a (h) is on record as 11%; at 5-HT transporter (h) it was 38%; on NK3 (h), 5%; on M3 (h) it was 55%. Moreover, the “activity, ex vivo one-cycle growth inhibition assay” value with Plasmodium berghei is “inactive”. In the data set with 401 human kinases, the “interference with 401 human kinases” value is reported as “did not interfere”. For the same compound, the hERG activity retained at hERG channel (20 μM) was greater than 90%. At hERG channel (100 μM), the “hERG channel remaining active” value stood at 50%. For the same compound, the “in vitro propagation / cytotoxicity” value in data set [2] was “did not affect”. In addition, the IC50 in [3] is greater than 30000 nM; in data set [4] it was 199 ± 30 nM; in [5], less than 20 nM. The Remaining enzyme activity at CYP2D6 is listed as 91%.
